Reference: patent US20070243211A1, “Compositions for regulating metabolic disorders and methods of use thereof” (priority 2005, published 2007)

Test: Uptake of L-carnitine by patients from oral dosage forms, measured by serum plasma levels
Type: in vivo
Text: Softgel capsules provide improved delivery of the components of the composition of the present invention compared to alternative dosage forms. For example, the uptake of L-carnitine by patients from tablets (e.g., measured by serum plasma levels) is about 10-14%; the uptake of L-carnitine from standard hard capsules is about 15-20%; whereas the uptake of L-carnitine from softgel capsules is about 100%.

uptake of L-carnitine (from softgel capsules): about 100%
uptake of L-carnitine (from standard hard capsules): 15-20%
uptake of L-carnitine (from tablets): 10-14%
Structure (SMILES): C[N+](C)(C)C[C@H](O)CC(=O)[O-] [L-carnitine]
